The values that follow come from paper PMC10892836, “Hybrid Molecules of Azithromycin with Chloramphenicol and Metronidazole: Synthesis and Study of Antibacterial Properties” (Pharmaceuticals, 2024).

Assay [1] has as its system Clostridium sporogenes ATCC 19404. Kind of assay: MIC, agar dilution, anaerobic bacteria (CLSI M11-A9). The assay is classed as cell-based. The note with it: ATCC19404, C. sporogenes ATCC 19404, anaerobic. How it is done:
The antimicrobial activity against anaerobic bacteria was evaluated using the agar dilution method in accordance with the CLSI document M11-A9 [58]. Twofold serial dilutions of compounds, at 10 times the desired concentration, were prepared in water and diluted (1:10) with the Brucella Agar medium containing 5% defibrinated horse blood, 5 mg/L hemin, and 1 mg/L vitamin K. The resulting plates were inoculated with approximately 10^5 CFU per spot using a replicator and incubated anaerobically at 36 °C for 48 h.
(§1) Minimum inhibitory concentration (MIC) was defined as the lowest concentration of a chemical compound that inhibits the visible growth of the bacterial strain. At least three replicates of MIC measurements were performed.

For assay [2], the system named is Propionibacterium acnes 55. Described as above. It counts as cell-based. The note with it: Cutibacterium acnes; P. acnes 55, anaerobic clinical isolate.
The test system of assay [3] is E. coli ΔtolC pErmCL-ErmC. Nature of the assay: MIC, broth microdilution, E. coli ΔtolC panel. It counts as cell-based. How it is done:
In order to create the construct pErmCL-ErmC, the vector backbone was amplified using pZa-fwd (5′-TAAGAATTCTCTAGCCCG-3′) and pZa-rev (5′-[…]-3′) primers, and the pERMZα plasmid as a template. The ermC gene was amplified from the pERMCTP plasmid with ErmC-fwd (5′-[…]-3′) and ErmC-rev (5′-TAGGCGGGCTAGAGAATTC-3′) primers. The joining of two DNA fragments was performed using the NEBuilder® HiFi DNA Assembly Master Mix (New England Biolabs, Ipswich, MA, USA). Sequences of intermediate products and the final construct were confirmed by Sanger sequencing with appropriate primers.
(§2) The E. coli ΔtolC strain was also transformed with the pErmC, pErmCL-ErmC, and pERMZα plasmids. The resulting strains were grown at 37 °C in LB medium supplied with 100 μg/mL ampicillin.
(§3) MIC values for a panel of E. coli ΔtolC strains were determined via the broth microdilution assay as described here with minor modifications. Briefly, the overnight E. coli culture was diluted to an OD600 of 0.01 in the fresh LB medium supplied with 100 μg/mL ampicillin, if required. Then, the cells were additionally incubated for 1–1.5 h at 37 °C with shaking at 200 rpm (Shaker-Incubator ES-20/80, BioSan, Riga, Latvia). Meanwhile, 100 μL of the liquid growth medium was placed in each well of a 96-well sterile plate (200 μL was placed in column 1). Solutions of tested compounds were added in the first column of the plate at 2 times the final concentration of 200 μg/mL. Then, 2-fold serial dilutions were performed. Immediately before use, bacterial inoculum was diluted (1:100) in the growth medium, and 100 μL of it was transferred in each well except for the sterility control column. The plate was incubated overnight (16–20 h) at 37 °C with constant shaking at 200 rpm (Shaker-Incubator ES-20/80, BioSan, Riga Latvia). Cell growth was assessed by scanning the OD600 with a VICTOR X5 Multilabel Plate Reader (PerkinElmer, Waltham, MA, USA).
as §1

The test system of assay [4] is ribosome stalling on ermCL mRNA. Nature of the assay: Toe-printing (primer extension inhibition) analysis on ermCL mRNA. It counts as biochemical. Particulars: 50 μM (chloramphenicol 30 μM). As to the method: The toe-printing (primer extension inhibition) analysis of azithromycin derivatives was carried out essentially as previously described with some minor modifications, as indicated below. The DNA template ErmCL was generated by PCR using two overlapping primers, ErmCL-fwd (5′-[…]-3′) and ErmCL-rev (5′-[…]-3′). Before the addition of the DNA template to reaction mixtures at the in vitro translation step, tubes were pre-incubated at RT for 5 min. Moreover, phenol-chloroform extraction of reverse transcription products was replaced with DNA purification using the QIAquick® PCR Purification Kit (Qiagen, Hilden, Germany) according to the manufacturer’s protocol.
Figure 4 Toe-printing (or primer extension inhibition) analysis of azithromycin derivatives on ermCL mRNA. Ribosome stalling is detected via reverse transcription in a cell-free bacterial transcription–translation coupled system. The toe-printing bands are marked with colored arrowheads, and the A-site codons (except for the start codon, P-site codon is indicated) occupied by the stalled ribosomes are indicated in the mRNA sequence with the corresponding colors. The stop codon is marked with an asterisk. All compounds but chloramphenicol (CLM) were tested at 50 μM. Chloramphenicol (CLM) was tested at 30 μM. DMSO was used as a negative control at 0.25% final concentration. Thiostrepton (THS) was used to indicate the translation start site.

Another assay relates to E. coli ΔtolC pErmC. Kind of assay: MIC, broth microdilution, E. coli ΔtolC panel. The assay is classed as cell-based. The note with it: Escherichia coli. How it is done:
as §2, §3, §1

A further assay has as its system E. coli ΔtolC pERMZα. Nature of the assay: MIC, broth microdilution, E. coli ΔtolC panel. It counts as cell-based. The note with it: Escherichia coli. As to the method: as §2, §3, §1
Assay [5] has as its system Streptococcus pneumoniae ATCC 6305. Kind of assay: MIC, broth microdilution (CLSI). The assay is classed as cell-based. The note with it: ATCC6305, S. pneumoniae ATCC 6305, Table S3. How it is done: To evaluate the antimicrobial activity of hybrid molecules, clinical and reference strains obtained from the Laboratory of Medical Microbiology of the State Scientific Center of Antibiotics (Moscow, Russia) were used. The activity of azithromycin derivatives conjugated with chloramphenicol was tested on the following reference strains: Streptococcus pneumoniae ATCC 49619, Staphylococcus aureus ATCC 29213, and Escherichia coli ATCC 25922. Additionally, azithromycin derivatives conjugated with metronidazole were tested on the Streptococcus agalactiae 1Cp strain, Streptococcus pneumoniae ATCC 6305 strain (see Table S3, Supplementary Materials), on the anaerobic Gram-positive Clostridium sporogenes ATCC 19404 strain, and Propionibacterium acnes 55 clinical isolate.
Minimum inhibitory concentration (MIC) values for facultative anaerobic bacteria were determined using the broth microdilution method outlined in the CLSI guidelines. Initially, all compounds were dissolved in dimethyl sulfoxide (DMSO) to achieve a concentration of 10 mg/mL. Subsequently, they were diluted with the Mueller–Hinton nutrient broth (MHB) supplemented with 5% defibrinated horse blood (for Streptococcus spp.) to a concentration of 64 μg/mL. […]

Values after ≈ are worked out from the molar mass of the structure shown.

As to `CC[C@H]1OC(=O)[C@H](C)[C@@H](O[C@H]2C[C@@](C)(OC)[C@@H](O)[C@H](C)O2)[C@H](C)[C@@H](O[C@@H]2O[C@H](C)C[C@H](N(C)C)[C@H]2O)[C@](C)(O)C[C@@H](C)CN(C)[C@H](C)[C@@H](O)[C@]1(C)O` [AZT, azithromycin], the MIC in assay [1] is 4 µg/mL (≈ 5.34 µM); in assay [2], less than 0.06 µg/mL; in assay [3] (Escherichia coli) it was 3.1 µg/mL (≈ 4.14 µM); against E. coli ΔtolC pErmC, more than 200 µg/mL; against E. coli ΔtolC pERMZα, 0.8 µg/mL (≈ 1.07 µM); in assay [5], 0.03 µg/mL (≈ 0.0401 µM). Besides, in assay [3], the “Fold increase in the MIC value on E. coli ΔtolC pErmCL-ErmC compared to E. coli ΔtolC” value is recorded as 4 fold. The “Ribosome stalling pattern on ermCL mRNA” value in assay [4] is “induces ribosome stalling when GUA (Val) or AGC (Ser) codons enter the A-site of the ribosome”.
